Results on one molecule are retold here after ChEMBL document CHEMBL3632556, “Synthesis and biological evaluation of new C-10 substituted dithranol pleiotropic hybrids” (Bioorg Med Chem, 2015).

The nature of data set [1]: Lipophilicity, RM of the compound by RP-TLC method. It is filed as physicochemical.
Data set [2] is described as follows: Cytotoxicity against human HaCaT cells assessed as cell survival at 100 uM after 48 hrs by MTT assay (reference value: 88.07 +/- 9.81%). As to conditions: read-out: Survival; call rule not given here. It counts as cell-based. Background: Tetrazolium assays rely on reduction of a dye to a coloured formazan, in cell work by metabolically active cells.
The nature of data set [3]: Antioxidant activity assessed as DPPH free radical scavenging activity by measuring reducing activity at 100 uM after 20 mins by spectrophotometry. It is filed as physicochemical. Details: scale not given: the % may be the effect or the level left. On the technique in general: DPPH is a stable violet radical that fades when it is reduced.
In data set [4] the test system is Rattus norvegicus. Put plainly: Acute toxicity in Fisher 344 rat up to 0.1 mmol/kg, ip. It is filed as organism-based. As to conditions: in vivo.
Data set [5] can be described thus: Cytotoxicity against human HaCaT cells assessed as cell survival at 0.01 uM after 48 hrs by MTT assay (reference value: 100%). It counts as cell-based. As to conditions: read-out: Survival.
Data set [6] in a line: Cytotoxicity against human HaCaT cells assessed as cell survival at 0.1 uM after 48 hrs by MTT assay (reference value: 96.75 +/- 1.77%). It counts as cell-based. As to conditions: read-out: Survival.
The next data set relates to HaCaT. Put plainly: Antiproliferative activity against human HaCaT cells after 24 hrs by MTT assay. It counts as functional, cell-based.
The nature of data set [7]: Antioxidant activity assessed as inhibition of AAPH-induced linoleic acid lipid peroxidation at 100 uM. It counts as physicochemical.
Data set [8] in a line: Cytotoxicity against human HaCaT cells assessed as cell survival at 10 uM after 48 hrs by MTT assay (reference value: 95.75 +/- 2.47%). It is filed as cell-based. The conditions noted are these: read-out: Survival.
A short description of data set [9]: Chemical stability in DMSO assessed as compound degradation at 1 mM after 5 days by HPLC analysis. As to conditions: 120 h, 1000 µM. It counts as physicochemical.
The subject of data set [10] is Rattus norvegicus. Put plainly: Anti-inflammatory activity in Fisher 344 rat assessed as inhibition of carrageenan-induced paw edema at 0.01 mmol/kg, ip after 3.5 hrs. It is filed as functional. The conditions noted are these: Fisher 344, ip. (In general: Carrageenan injected into the paw causes an acute inflammation.)
Data set [11] can be described thus: Cytotoxicity against human HaCaT cells assessed as cell survival at 1 uM after 48 hrs by MTT assay (reference value: 97.50 +/- 0.71%). It counts as cell-based. As to conditions: read-out: Survival.
Data set [12] can be described thus: Drug metabolism in DMSO assessed as formation of oxidative product danthron at 1 mM after 2 days by HPLC analysis. It is filed as physicochemical. As to conditions: 48 h, 1000 µM.
Data set [13] is described as follows: Antioxidant activity assessed as increase of DPPH free radical scavenging activity by measuring reducing activity at 100 uM after 60 mins by spectrophotometry. It is filed as physicochemical. As to conditions: 1 h.
Data set [14] is described as follows: Inhibition of soybean LOX assessed as reduction in conversion of sodium linoleate to 13-hydroperoxylinoleic acid by UV analysis. Details: species or system Glycine max. The conditions noted are these: read-out: IC50.

For `COc1ccc(C(NC(=O)CC2c3cccc(O)c3C(=O)c3c(O)cccc32)c2ccc(OC)cc2)cc1`, the Rm in [1] is reported as 0.66. Besides, the viability at 48 h, 100 µM in data set [2] was 9.65%. Further, the figures for the Activity (in data set [3]; in the data set on Rattus norvegicus [4]; in [13]) were 86%, “Non-toxic” and “Active”, respectively. In [5], the viability at 48 h, 0.01 µM amounted to 79.8%. Also, the viability at 48 h, 0.1 µM in [6] worked out at 44%. Further, the concentration for half-maximal inhibition (IC50) in the data set on HaCaT was 0.56 µM; in [14], 7 µM. Moreover, in data set [7], the “inhibition (INH)” value was 95%. Besides, the viability at 48 h, 10 µM in [8] is 20.3%. The Stability result in [9] and in [12] was “Stable” in each case. Moreover, the inhibition in vivo at 10 µmol/kg in the data set on Rattus norvegicus [10] was 79.7%. The viability at 48 h, 1 µM in data set [11] worked out at 38%.

For orientation: IC50 means the concentration that gives 50% inhibition. Broadly, the inhibition in vivo is how much of the control response was suppressed.
